Source: ChEMBL document CHEMBL3612013, “Cyclodextrin complexation highly enhances efficacy of arylsulfonylureido benzenesulfonamide carbonic anhydrase inhibitors as a topical antiglaucoma agents” (Bioorg Med Chem, 2015)
Converted amounts (≈) assume the structure as drawn.

Legend:
Oryctolagus cuniculus [1] = assay: Toxicity in New Zealand albino rabbit model of carbomer-induced hypertensive eye glaucoma assessed as induction of eye irritation at 2% directly instilled into conjunctive pocket measured 24 hrs post drug administration; format: organism-based; conditions: in vivo, topical_or_ocular
[2] = Equilibrium solubility in pH 7.4 PBS in presence of hydroxypropyl-gamma cyclodextrin incubated for 48 hrs at 25 degC by spectrophotometry; format: physicochemical; conditions: PBS with hydroxypropyl-gamma cyclodextrin
[3] = Aqueous solubility in pH 7.4 PBS in presence of hydroxypropyl-beta cyclodextrin incubated for 48 hrs at 25 degC by spectrophotometry; format: physicochemical; conditions: PBS with hydroxypropyl-beta cyclodextrin
[4] = Aqueous solubility in pH 7.4 PBS in presence of sulfobutyl-ether-beta cyclodextrin incubated for 48 hrs at 25 degC by spectrophotometry; format: physicochemical; conditions: PBS with sulfobutyl-ether-beta cyclodextrin
[5] = Aqueous solubility in pH 7.4 PBS in presence of hydroxyethyl-beta cyclodextrin incubated for 48 hrs at 25 degC by spectrophotometry; format: physicochemical; conditions: PBS with hydroxyethyl-beta cyclodextrin
[6] = Aqueous solubility in pH 7.4 PBS incubated for 48 hrs at 25 degC by spectrophotometry; format: physicochemical
Oryctolagus cuniculus [7] = assay: (§1) Toxicity in New Zealand albino rabbit model of carbomer-induced hypertensive eye glaucoma assessed as induction of eye irritation at 0.07% using compound complexed with cyclodextrin directly instilled into conjunctive pocket measured 24 hrs post drug administration; format: organism-based; conditions: in vivo, topical_or_ocular
[8] = Aqueous solubility in pH 7.4 PBS in presence of hydroxypropyl-alpha cyclodextrin incubated for 48 hrs at 25 degC by spectrophotometry; format: physicochemical; conditions: PBS with hydroxypropyl-alpha cyclodextrin
[9] = Aqueous solubility in pH 7.4 PBS in presence of gamma-cyclodextrin incubated for 48 hrs at 25 degC by spectrophotometry; format: physicochemical; conditions: PBS with gamma-cyclodextrin
[10] = Stability of the compound; format: physicochemical
Oryctolagus cuniculus [11] = assay: as §1, with “Antiglaucoma activity” for “Toxicity”, “time duration showing reduction in intraocular pressure” for “induction of eye irritation”; format: functional
Oryctolagus cuniculus [12] = assay: (§2) Antiglaucoma activity in New Zealand albino rabbit model of carbomer-induced hypertensive eye glaucoma assessed as intraocular pressure at 0.07% using compound complexed with cyclodextrin directly instilled into conjunctive pocket measured 24 hrs post drug administration (reference value: 45 to 50 mmHg); format: functional
Oryctolagus cuniculus [13] = assay: as §2, with “1 hr” for “24 hrs”; format: functional
[14] = Aqueous solubility in pH 7.4 PBS in presence of hydroxypropyl-gamma cyclodextrin incubated for 48 hrs at 25 degC by spectrophotometry; format: physicochemical; conditions: PBS with hydroxypropyl-gamma cyclodextrin
Oryctolagus cuniculus [15] = assay: Toxicity in New Zealand albino rabbit model of carbomer-induced hypertensive eye glaucoma assessed as induction of eye irritation at 0.37% using compound complexed with cyclodextrin directly instilled into conjunctive pocket measured 24 hrs post drug administration; format: organism-based; conditions: in vivo, topical_or_ocular
Oryctolagus cuniculus [16] = assay: as §2, with “0.37%” for “0.07%”; format: functional
Oryctolagus cuniculus [17] = assay: as §2, with “0.37%” for “0.07%”, “1 hr” for “24 hrs”; format: functional
Oryctolagus cuniculus [18] = assay: Antiglaucoma activity in New Zealand albino rabbit model of carbomer-induced hypertensive eye glaucoma assessed as time duration showing reduction in intraocular pressure at 0.37% using compound complexed with cyclodextrin directly instilled into conjunctive pocket measured 24 hrs post drug administration; format: functional

Row | SMILES | Activity (Oryctolagus cuniculus [1]) | solubility thermodynamic at 48 h [2] | solubility at 48 h [3] | solubility at 48 h [4] | solubility at 48 h [5] | solubility at 48 h [6] | Activity (Oryctolagus cuniculus [7]) | solubility at 48 h [8] | solubility at 48 h [9] | K [10] | Time (Oryctolagus cuniculus [11]) | Activity (Oryctolagus cuniculus [12]) | Activity (Oryctolagus cuniculus [13]) | solubility at 48 h [14] | Activity (Oryctolagus cuniculus [15]) | Activity (Oryctolagus cuniculus [16]) | Activity (Oryctolagus cuniculus [17]) | Time (Oryctolagus cuniculus [18])
1 | Cc1ccc(S(=O)(=O)NC(=O)NCCc2ccc(S(N)(=O)=O)cc2)cc1 | Toxic | 700 µg/mL | 212 µg/mL | 174 µg/mL | 203 µg/mL | 87 µg/mL (≈ 219 µM) | Toxic | 141 µg/mL | 232 µg/mL | 143.75 M⁻¹ | 20 h | 35 mmHg | 36 mmHg | 278 µg/mL |  |  |  | 
2 | NS(=O)(=O)c1ccc(CCNC(=O)NS(=O)(=O)c2ccc(F)cc2)cc1 | Toxic | 3700 µg/mL | 2170 µg/mL | 1810 µg/mL | 2240 µg/mL | 972 µg/mL (≈ 2420 µM) |  | 1580 µg/mL | 2260 µg/mL | 76.3 M⁻¹ |  |  |  | 2330 µg/mL | Toxic | 35 mmHg | 36 mmHg | 20 h
